Key:
hiPSC-CM EHTs = assay: Inotropic/lusitropic response of hiPSC-CM EHTs to β-adrenergic agonist; format: cell-based, human; conditions: 100 nM isoproterenol, 8% stretch, 30 minutes equilibration, vs baseline
Protocol: To determine twitch force development and kinetics, EHTs were measured as early as 5 days after seeding. Clips holding the EHT were ejected from the frame and picked up by motorized micromanipulators with claw-like extensions, leaving the muscle suspended between an anchoring attachment claw on one end and a force transducer mounted to a second claw on the other (FIG. 5D). The EHT was immersed in a temperature-controlled perfusion bath equipped with electrodes for field stimulus. Throughout measurements, scaffolds were perfused with freshly oxygenated Tyrode's solution (in mM: NaCl 140, KCl5.4, MgCl2 1, HEPES 25, glucose 10, and CaCl 1.8; pH adjusted to 7.35). Used Tyrode's solution was collected in a sealed chamber during testing and checked to ensure adequate consistency of pH. The maximum fluctuation never exceeded 0.05 pH units. All measurements were performed at 35° C. During biomechanical testing, NRVM-EHTs were electrically paced (12 V, 10 ms pulse width at 0.5 Hz) and the resulting twitch force was recorded (FIG. 5E). Human EHTs were paced at 1 Hz. Intracellular calcium concentrations were measured in some constructs using the ratiometric fluorescent indicator Fura-2 AM. Inotropic response. […] Tissues were equilibrated in Tyorde's solution for 30 minutes and measured at 8% stretch. […]

[1] = system: EHTs from neonatal rat ventricular myocytes (NRVMs) seeded into laser-cut decellularized porcine myocardium; assay: Twitch stress and kinetics of NRVM engineered heart tissues cultured with thyroid hormone T3; format: cell-based
Protocol: To determine twitch force development and kinetics, EHTs were measured as early as 5 days after seeding. Clips holding the EHT were ejected from the frame and picked up by motorized micromanipulators with claw-like extensions, leaving the muscle suspended between an anchoring attachment claw on one end and a force transducer mounted to a second claw on the other (FIG. 5D). The EHT was immersed in a temperature-controlled perfusion bath equipped with electrodes for field stimulus. Throughout measurements, scaffolds were perfused with freshly oxygenated Tyrode's solution (in mM: NaCl 140, KCl5.4, MgCl2 1, HEPES 25, glucose 10, and CaCl 1.8; pH adjusted to 7.35). Used Tyrode's solution was collected in a sealed chamber during testing and checked to ensure adequate consistency of pH. The maximum fluctuation never exceeded 0.05 pH units. All measurements were performed at 35° C. During biomechanical testing, NRVM-EHTs were electrically paced (12 V, 10 ms pulse width at 0.5 Hz) and the resulting twitch force was recorded (FIG. 5E). Human EHTs were paced at 1 Hz. Intracellular calcium concentrations were measured in some constructs using the ratiometric fluorescent indicator Fura-2 AM.
During mechanical testing, EHTs were stretched until reaching their culture length (6 mm) and again after applying 0.1 mm incremental increases until reaching a length of 6.6 mm (representing 10% total stretch). Ten contraction events were recorded and averaged at each level of stretch. The peak stress (mN/mm^2) was computed offline by dividing measured force by the cross-sectional area of the EHT. Characteristics of contraction kinetics were also computed offline, including the time to peak stress (TTP) and time from peak stress to 50% relaxation (RT50). The length-stress gain during isometric stretch (slope of the stretch-peak stress relationship, FIG. 13C) was calculated for each scaffold using engineering strain as the unit for stretch. The force-frequency relationship was determined while keeping EHTs at 10% stretch and taking records at 0.5, 1, 2, 4, 6, and 8 Hz. During force-frequency measurements, pacing capture of EHTs was ensured by checking real time oscilloscope readings of the force transducer voltage output.
Thyroid hormone speeds contractile kinetics. To assess the sensitivity of this system towards changes in contractility and twitch kinetics, EHTs were subjected to a pharmacological perturbation known to alter the intrinsic properties of cardiac muscle. In rodents, an increase in thyroid hormone (T3) promotes expression of the faster α isoform of myosin heavy chain23. […] EHTs were characterized functionally and then returned to culture conditions at days 5, 8, 12, and 15.

[2] = 15 days old NRVM EHTs after T3 treatment, 2 Hz pacing

Row | Compound | lusitropic response (twitch kinetics TTP and RT50) (hiPSC-CM EHTs) | RT50 [1, 2] | TTP [1, 2] | time to peak stress (TTP) ([1]; NRVM EHTs, T3 10 ng/ml in culture, after 15 days in culture, untreated 113±6 ms) | time from peak stress to 50% relaxation (RT50) ([1]; NRVM EHTs, T3 10 ng/ml in culture, after 15 days in culture, untreated 130±3 ms) | effect on evolution of peak stress development across time points ([1]; T3 10 ng/ml, days 5, 8, 12, 15, 2-way repeated measures ANOVA) | effect on rates of contraction and relaxation vs non-treated control ([1]; T3 10 ng/ml, every time point analyzed (days 5, 8, 12, 15), p<0.001)
1 | CC(C)NCC(O)c1ccc(O)c(O)c1 (stereo not shown) [Isoproterenol] | shorter TTP and RT50 |  |  |  |  |  | 
2 | N[C@@H](Cc1cc(I)c(Oc2ccc(O)c(I)c2)c(I)c1)C(=O)O [T3] |  | around 59 ms | 83 ms | 77 ± 2 ms | 63 ± 3 ms | no significant effect | significantly accelerated rates of contraction and relaxation
